Test results reported in patent publication US20240165276A1, “SELECTIVE LIGANDS FOR TAU AGGREGATES” (KARIN & STEN MORTSTEDT CBD SOLUTIONS AB, priority 2019, published 2024).
Read-outs that look alike come from different tables or passages of the source.

How the values were obtained:
[1] = biological target: Aβ(1-42) amyloid fibrils (Homo sapiens, UniProt P05067); experiment: ^3H-AZD2184 competition binding to Aβ(1-42) fibrils in vitro; details: competition with [^3H]-AZD2184, Aβ(1-42) amyloid fibrils; average if run more than once
Protocol: ^3H-AZD2184 Competition Binding to Aβ(1-42) Fibrils In Vitro
Competition binding experiments to Aβ(1-42) amyloid fibrils were performed as previously described in Jureus, A., et al, Journal of Neurochemistry (2010), Vol. 114, pages 784-794 for the Example compounds of the invention indicated in Table 2, or the known tau specific ligand PBB3 (PBB3 was synthesized as previously described in M. Maruyama, et al, Neuron 2013, 79, 1094-1108).
The results are shown in Table 2 in the column labeled “Aβ IC50”.

[2] = biological target: recombinant 0N4R Tau fibrils (Homo sapiens (Human), UniProt P10636); experiment: ^3H-THK5117 competition binding to tau fibrils in vitro; details: for IC50: competition with 3 nM [^3H]-THK5117, 0N4R tau fibrils, 1 h, 22° C., average if run more than once
Protocol: (§1) ^3H-THK5117 Competition Binding to Tau Fibrils In Vitro
(§2) Preparation of recombinant 0N4R Tau fibrils was performed as previously described in Morozova, O. A., Biochemistry (2013), Vol., 52(40), pages 6960-6967. Competition binding experiments to 0N4R Tau fibrils were performed by incubating increasing concentrations [10^−10-10^−6 M] of the Example compounds of the invention, or the known tau specific ligand PBB3 (PBB3 was synthesized as previously described in M. Maruyama, et al, Neuron 2013, 79, 1094-1108) or MK6240 (Novandi Chemistry AB), in the presence of 3 nM of the known tau ligand [^3H]-THK5117 (Novandi Chemistry) and 0.2 mM 0N4R tau fibrils in binding buffer (50 mM Tris-HCl, pH 7.4, 0.1% BSA) for 1 h in the dark, and at 22° C. The incubation was terminated by filtration through a Whatman GF/B glass filter (Whatman International, Kent, UK) using a Brandel cell harvester. The filter was then washed rapidly four times with 3 mL of ice-cold wash buffer (5 mM Tris-HCl, 0.25 mM NaCl, 5% EtOH), and equilibrated for 1 h in scintillation vials containing 5 mL of Ultima Gold scintillation fluid before being analysed using a Liquid Scintillation Analyzer.
(§3) The results are shown in Table 2 in the column labeled “Tau IC50”.
(§4) Relative Selectivity for Tau vs. Aβ
(§5) Relative selectivity for tau compared to Aβ for the exemplified compounds was calculated using the results for the [^3H]-THK5117 tau and [^3H]-AZD2184 Aβ assays described above. The calculated results are shown in Table 2 in the column labeled “Selectivity for tau relative to Aβ”.

[3] = test system: recombinant 0N4R Tau fibrils; experiment: as above; details: calculated from [^3H]-THK5117 tau and [^3H]-AZD2184 Aβ assay results
Protocol: as §1, §2, §3, §4, §5

[4] = cited from earlier work

Chain of recombinant 0N4R Tau fibrils (Homo sapiens (Human), UniProt P10636) (P10636 other isoform, or with tags, fused parts or gaps): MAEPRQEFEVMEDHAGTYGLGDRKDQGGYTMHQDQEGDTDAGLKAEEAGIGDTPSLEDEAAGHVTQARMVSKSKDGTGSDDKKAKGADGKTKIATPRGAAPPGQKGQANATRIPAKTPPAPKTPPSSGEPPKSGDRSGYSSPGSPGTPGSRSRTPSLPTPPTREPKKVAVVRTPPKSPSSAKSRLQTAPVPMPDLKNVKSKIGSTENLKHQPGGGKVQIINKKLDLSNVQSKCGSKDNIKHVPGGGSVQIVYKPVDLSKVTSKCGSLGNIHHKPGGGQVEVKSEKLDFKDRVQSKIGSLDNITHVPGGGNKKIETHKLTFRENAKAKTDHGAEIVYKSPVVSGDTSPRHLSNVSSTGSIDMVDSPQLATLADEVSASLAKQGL
Chain of Aβ(1-42) amyloid fibrils (P05067 672-713 limits assumed): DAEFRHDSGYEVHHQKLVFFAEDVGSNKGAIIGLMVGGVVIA

Row | IC50 [1] | IC50 [2] | Selectivity for tau relative to Aβ [3] | binding in the recombinant 4R tau fibrils assay (in words) ([2]; recombinant 4R tau fibrils, [^3H]-THK5117 competition) | Compound | radiochemical purity after exposure to fluorescent light ([4]; 1 min after exposure to fluorescent light) | radiochemical purity after exposure to fluorescent light ([4]; from 10 to 60 min after exposure to fluorescent light)
1 | 65 nM | 9 nM | 7.2 |  | COc1ccc2nc(-c3ccc(N4CCC(O)(CO)CC4)nc3)sc2c1 [Compound 14, 4-(Hydroxymethyl)-1-[5-(6-methoxy-1,3-benzothiazol-2-yl)pyridin-2-yl]piperidin-4-ol] |  | 
2 |  | 40 nM |  |  | COc1ccc2nc(-c3ccc(N4C[C@H](O)C[C@H](O)C4)nc3)sc2c1 [Compound 12, (3R,5S)-1-[5-(6-Methoxy-1,3-benzothiazol-2-yl)pyridin-2-yl]piperidine-3,5-diol] |  | 
3 |  | 29 nM |  |  | OC[C@@H]1CCN(c2ccc(-c3cc4cc(O)ccc4[nH]3)c(F)n2)C[C@H]1O [Compound 18, 2-{2-Fluoro-6-[(3S,4S)-3-hydroxy-4-(hydroxymethyl)piperidin-1-yl]pyridin-3-yl}-1H-indol-5-ol] |  | 
4 | 8 nM | 4 nM | 2 |  | COc1ccc2nc(-c3ccc(N4CCCC(O)C4)nc3)sc2c1 (stereo not shown) [Compound 1, 1-[5-(6-Methoxy-1,3-benzothiazol-2-yl)pyridin-2-yl]piperidin-3-ol] |  | 
5 |  | 6 nM |  |  | COc1ccc2nc(-c3ccc(N4CC[C@@H](O)[C@@H](O)C4)nc3)sc2c1 [Compound 23, (3S,4R)-1-[5-(6-Methoxy-1,3-benzothiazol-2-yl)pyridin-2-yl]piperidine-3,4-diol] |  | 
6 |  | > 1000 nM |  | inactive | Nc1c(F)ccc2cnc(-n3ccc4ccncc43)cc12 [MK-6420, reference compound] |  | 
7 | 11 nM | 11 nM | 1 |  | COc1ccc2nc(-c3ccc(N4CC[C@H](O)C4)nc3)sc2c1 [Compound 3, (3S)-1-[5-(6-Methoxy-1,3-benzothiazol-2-yl)pyridin-2-yl]pyrrolidin-3-ol] |  | 
8 |  | 9 nM |  |  | COc1ccc2nc(-c3ccc(N4CC[C@@H](CO)[C@@H](O)C4)nc3)sc2c1 [Compound 24] |  | 
9 | 12 nM | 10 nM | 1.2 |  | O[C@@H]1CCCN(c2ncc(-c3cc4cc(OCCF)ccc4[nH]3)cn2)C1 [Compound 31, (3R)-1-{5-[5-(2-Fluoroethoxy)-1H-indol-2-yl]pyrimidin-2-yl}piperidin-3-ol] |  | 
10 |  | 11 nM |  |  | COc1ccc2nc(-c3ccc(N4CC[C@@H](CO)[C@H](O)C4)nc3)sc2c1 [Compound 11, (3S,4S)-4-(Hydroxymethyl)-1-[5-(6-methoxy-1,3-benzothiazol-2-yl)pyridin-2-yl]piperidin-3-ol] |  | 
11 | 37 nM | 1 nM | 37 |  | Oc1ccc2[nH]c(-c3ccc(N4CCC[C@@H](O)C4)nc3F)cc2c1 [Compound 6, 2-{2-Fluoro-6-[(3R)-3-hydroxypiperidin-1-yl]pyridin-3-yl}-1H-indol-5-ol] |  | 
12 | 90 nM | 150 nM | 0.6 |  | Oc1ccc2[nH]c(-c3cnc(N4CCC[C@@H](O)C4)nc3)cc2c1 [Compound 30, 2-{2-[(3R)-3-Hydroxypiperidin-1-yl]pyrimidin-5-yl}-1H-indol-5-ol] |  | 
13 | 11 nM | 7 nM | 1.6 |  | OCCC1CN(c2ccc(-c3cc4cc(O)ccc4[nH]3)c(F)n2)C1 [Compound 5] |  | 
14 | 47 nM | 38 nM | 1.2 |  | OCC1CN(c2ccc(-c3cc4cc(O)ccc4[nH]3)c(F)n2)C1 [Compound 4] |  | 
15 | 32 nM | 25 nM | 1.3 |  | Oc1ccc2[nH]c(-c3ccc(N4CCC[C@@H](O)C4)nc3)cc2c1 [Compound 27, 2-{6-[(3R)-3-Hydroxypiperidin-1-yl]pyridin-3-yl}-1H-indol-5-ol] |  | 
16 |  | 16 nM |  |  | COc1ccc2nc(-c3ccc(N4CC[C@@H](O)[C@H](O)C4)nc3)sc2c1 [Compound 8, (3R,4R)-1-[5-(6-Methoxy-1,3-benzothiazol-2-yl)pyridin-2-yl]piperidine-3,4-diol] |  | 
17 | 8 nM | 4 nM | 2 |  | O[C@@H]1CCCN(c2ccc(-c3cc4cc(OCCF)ccc4[nH]3)cn2)C1 [Compound 28, (3R)-1-{5-[5-(2-Fluoroethoxy)-1H-indol-2-yl]pyridin-2-yl}piperidin-3-ol] |  | 
18 | 25 nM | 89 nM | 0.3 |  | O[C@@H]1CCCN(c2ncc(-c3cc4cc(OCCOCCOCCF)ccc4[nH]3)cn2)C1 [Compound 32, (3R)-1-[5-(5-{2-[2-(2-Fluoroethoxy)ethoxy]ethoxy}-1H-indol-2-yl)pyrimidin-2-yl]piperidin-3-ol] |  | 
19 |  | 62 nM |  |  | COc1ccc2nc(-c3ccc(N4C[C@H](O)C[C@@H](O)C4)nc3)sc2c1 [Compound 25, (3R,5R)-1-[5-(6-Methoxy-1,3-benzothiazol-2-yl)pyridin-2-yl]piperidine-3,5-diol] |  | 
20 | 9 nM | 40 nM | 0.2 |  | OCC1(O)CCN(c2ccc(-c3cc4cc(O)ccc4[nH]3)c(F)n2)CC1 [Compound 21, 2-{2-Fluoro-6-[4-hydroxy-4-(hydroxymethyl)piperidin-1-yl]pyridin-3-yl}-1H-indol-5-ol] |  | 
21 | 28 nM | 7 nM | 4 |  | CNc1ccc(/C=C/C=C/c2nc3ccc(O)cc3s2)cn1 [PBB3, reference compound] |  | 
22 | 80 nM | 9 nM | 8.9 |  | Oc1ccc2[nH]c(-c3ccc(N4CCC[C@H](O)C4)nc3F)cc2c1 [Compound 7, 2-{2-Fluoro-6-[(3S)-3-hydroxypiperidin-1-yl]pyridin-3-yl}-1H-indol-5-ol] |  | 
23 |  | 48 nM |  |  | OC[C@@H]1CCN(c2ccc(-c3cc4cc(O)ccc4[nH]3)c(F)n2)C[C@@H]1O [Compound 26] |  | 
24 |  | 6 nM |  |  | COC(=O)C1CN(c2ccc(-c3cc4cc(O)ccc4[nH]3)c(F)n2)C1 [Compound 33, Methyl 1-[6-Fluoro-5-(5-hydroxy-1H-indol-2-yl)pyridin-2-yl]azetidine-3-carboxylate] |  | 
25 | 80 nM | 14 nM | 5.7 |  | O[C@@H]1CCCN(c2ccc(-c3cc4cc(OCCOCCOCCF)ccc4[nH]3)cn2)C1 [Compound 29, (3R)-1-[5-(5-{2-[2-(2-Fluoroethoxy)ethoxy]ethoxy}-1H-indol-2-yl)pyridin-2-yl]piperidin-3-ol] |  | 
26 | 22 nM | 18 nM | 1.2 |  | COc1ccc2nc(-c3ccc(N4CC[C@@H](O)C4)nc3)sc2c1 [Compound 2, (3R)-1-[5-(6-Methoxy-1,3-benzothiazol-2-yl)pyridin-2-yl]pyrrolidin-3-ol] |  | 
27 |  |  |  |  | CNc1ccc(/C=C/C=C/c2nc3ccc(O)cc3s2)cn1 [^11C-PBB3] | 77% | approximately 50%
28 | 3 nM | 3 nM | 1 |  | OCC1CCN(c2ccc(-c3cc4ccc(O)cc4[nH]3)c(F)n2)CC1 [Compound 22, 2-{2-Fluoro-6-[4-(hydroxymethyl)piperidin-1-yl]pyridin-3-yl}-1H-indol-6-ol] |  | 
